Where two headings read alike, the source gives them in different places.
What was measured:
[1] = molecular target: T1, human recombinant adrenergic α2B receptor (Homo sapiens, UniProt P18089); experiment: Radioligand binding, adrenergic α2B ([3H]Rauwolscine)
T1 construct: expressed in transfected cells; host or cells: CHO-K1
T1 sequence (P18089 1-450): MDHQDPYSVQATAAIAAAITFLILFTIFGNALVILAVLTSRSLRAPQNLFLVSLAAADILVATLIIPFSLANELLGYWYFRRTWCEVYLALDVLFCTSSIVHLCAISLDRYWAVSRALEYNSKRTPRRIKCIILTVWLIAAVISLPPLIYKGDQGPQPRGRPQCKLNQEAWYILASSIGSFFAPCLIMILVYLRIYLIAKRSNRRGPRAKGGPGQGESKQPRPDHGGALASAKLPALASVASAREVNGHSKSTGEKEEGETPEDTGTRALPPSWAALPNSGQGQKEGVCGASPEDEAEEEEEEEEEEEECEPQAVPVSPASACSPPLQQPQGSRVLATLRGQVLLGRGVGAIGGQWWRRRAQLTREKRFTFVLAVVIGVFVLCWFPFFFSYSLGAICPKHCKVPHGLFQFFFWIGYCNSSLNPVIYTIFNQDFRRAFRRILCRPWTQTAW
How it was run: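 Assay used CHO-K1-expressed human α2B receptor in Tris-HCl pH 7.4 buffer with MgCl2, EDTA and BSA; 60 min incubation at 25 °C.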

[2] = molecular target: T2, human recombinant adrenergic α2A receptor (Homo sapiens, UniProt P08913); experiment: Radioligand binding, adrenergic α2A ([3H]MK-912)
T2 construct: expressed in transfected cells; host or cells: insect Sf9 cells
T2 sequence (P08913 1-465): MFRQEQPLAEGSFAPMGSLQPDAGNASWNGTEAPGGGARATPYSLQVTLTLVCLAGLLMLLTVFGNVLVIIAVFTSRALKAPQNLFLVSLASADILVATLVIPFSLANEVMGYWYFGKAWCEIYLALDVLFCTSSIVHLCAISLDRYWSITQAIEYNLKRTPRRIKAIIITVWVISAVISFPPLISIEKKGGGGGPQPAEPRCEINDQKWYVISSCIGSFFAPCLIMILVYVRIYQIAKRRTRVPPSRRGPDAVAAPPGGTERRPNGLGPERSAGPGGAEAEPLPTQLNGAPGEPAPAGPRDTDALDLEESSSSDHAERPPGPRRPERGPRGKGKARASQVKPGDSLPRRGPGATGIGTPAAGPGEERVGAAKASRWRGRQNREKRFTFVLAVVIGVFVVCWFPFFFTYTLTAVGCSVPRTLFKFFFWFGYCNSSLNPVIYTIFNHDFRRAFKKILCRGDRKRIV
How it was run: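 Receptor expressed in insect Sf9 cells, assayed in 50 mM Tris-HCl pH 7.4 with 12.5 mM MgCl2 and 2 mM EDTA. Compounds incubated with 1 nM [3H]MK-912 for 60 min at 25 °C; nonspecific binding defined with 10 μM WB-4101. Filter-bound radioactivity counted; values are percent inhibition of specific binding.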

[3] = molecular target: T3, rat adrenergic α1B receptor (Rattus norvegicus, UniProt P15823); experiment: Radioligand binding, adrenergic α1B ([3H]Prazosin)
T3 construct: rat adrenergic α1B receptor obtained from Wistar Rat liver; from tissue; host or cells: Wistar rat liver
T3 sequence (P15823 1-515): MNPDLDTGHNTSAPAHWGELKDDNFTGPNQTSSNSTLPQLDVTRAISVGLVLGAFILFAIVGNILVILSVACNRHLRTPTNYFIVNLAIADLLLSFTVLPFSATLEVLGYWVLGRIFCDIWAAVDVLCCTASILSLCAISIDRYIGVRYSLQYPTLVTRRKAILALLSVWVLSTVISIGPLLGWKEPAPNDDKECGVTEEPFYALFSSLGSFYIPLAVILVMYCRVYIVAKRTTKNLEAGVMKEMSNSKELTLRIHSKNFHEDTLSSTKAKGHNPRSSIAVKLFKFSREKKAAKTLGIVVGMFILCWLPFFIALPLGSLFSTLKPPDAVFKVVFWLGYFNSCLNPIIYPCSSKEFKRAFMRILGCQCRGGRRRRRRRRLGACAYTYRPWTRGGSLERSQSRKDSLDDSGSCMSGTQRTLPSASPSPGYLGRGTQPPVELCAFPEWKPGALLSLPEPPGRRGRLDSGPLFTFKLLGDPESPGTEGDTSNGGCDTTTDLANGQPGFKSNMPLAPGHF
How it was run: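 Filter binding with Wistar rat liver α1B preparation: test compound plus 0.25 nM [3H]prazosin, 1 h at 25° C in modified Tris-HCl buffer pH 7.4.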

[4] = molecular target: T4, human recombinant adrenergic α1D receptor (Homo sapiens, UniProt P25100); experiment: Radioligand binding, adrenergic α1D ([3H]Prazosin)
T4 construct: expressed in transfected cells; host or cells: HEK-293
T4 sequence (P25100 1-572): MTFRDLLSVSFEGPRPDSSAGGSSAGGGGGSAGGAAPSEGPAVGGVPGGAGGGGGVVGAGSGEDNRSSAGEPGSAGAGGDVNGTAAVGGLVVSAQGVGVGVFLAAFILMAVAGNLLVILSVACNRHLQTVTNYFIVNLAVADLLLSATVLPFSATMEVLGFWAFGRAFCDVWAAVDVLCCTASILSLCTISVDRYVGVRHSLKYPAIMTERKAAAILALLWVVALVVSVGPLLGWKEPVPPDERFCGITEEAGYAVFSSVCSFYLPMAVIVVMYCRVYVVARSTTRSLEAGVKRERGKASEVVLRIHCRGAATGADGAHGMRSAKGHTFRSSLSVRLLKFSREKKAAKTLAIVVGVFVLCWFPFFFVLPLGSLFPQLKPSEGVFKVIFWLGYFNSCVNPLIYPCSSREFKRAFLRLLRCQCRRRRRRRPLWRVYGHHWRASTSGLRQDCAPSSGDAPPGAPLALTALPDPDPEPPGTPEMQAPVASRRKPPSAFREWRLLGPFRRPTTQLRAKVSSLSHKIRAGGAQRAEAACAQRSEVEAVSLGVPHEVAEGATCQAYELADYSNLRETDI
Protocol: Compounds were incubated with 0.6 nM [3H]Prazosin for 60 min at 25° C. Non-specific binding was estimated in the presence of 10 μM phentolamine. Receptor proteins were filtered and washed, the filters were then counted to determine [3H]Prazosin specifically bound. […] Biochemical assay results are presented as the percent inhibition of specific binding in Table B1.

[5] = 0.1 μM compound, read-out: Percentage inhibition of ligand binding, Adrenergic α2B
[6] = 0.1 μM compound, read-out: Percentage inhibition of ligand binding, Adrenergic α2A
[7] = 0.1 μM compound, read-out: Percentage inhibition of ligand binding, Adrenergic α1B
[8] = 0.1 μM compound, read-out: Percentage inhibition of ligand binding, Adrenergic α1D
[9] = read-out: Percentage inhibition of ligand binding, Adrenergic α2B (0.1 μM), compound at 0.1 μM, [3H]Rauwolscine, repeat datapoints each shown
[10] = read-out: Percentage inhibition of ligand binding, Adrenergic α2A (0.1 μM), compound at 0.1 μM, [3H]MK-912, repeat datapoints each shown
[11] = read-out: Percentage inhibition of ligand binding, Adrenergic α1B (0.1 μM), compound at 0.1 μM, [3H]Prazosin, repeat datapoints each shown
[12] = read-out: Percentage inhibition of ligand binding, Adrenergic α1D (0.1 μM), compound at 0.1 μM, [3H]Prazosin, repeat datapoints each shown

| inhibition at 0.1 µM [1, 5] | inhibition at 0.1 µM [2, 6] | inhibition at 0.1 µM [3, 7] | inhibition at 0.1 µM [4, 8] | inhibition at 0.1 µM [1, 9] | inhibition at 0.1 µM [2, 10] | inhibition at 0.1 µM [3, 11] | inhibition at 0.1 µM [4, 12] | SMILES |
| --- | --- | --- | --- | --- | --- | --- | --- | --- |
| 83% | 61% | 36% | 44% | – | – | – | – | COc1cc(/C(C)=C/n2c3c(c4cc(C)ccc42)CN(C)CC3)ccn1 [compound 269] |
| 78% | 31% | 54% | 11% | – | – | – | – | Cc1ccc(C(C)(O)Cn2c3c(c4cc(Cl)ccc42)CN(C)CC3)cc1 (stereo not shown) [II-56] |
| 95% | 90% | 76% | 31% | – | – | – | – | C/C(=C\n1c2c(c3cc(Cl)ccc31)CCN(C)CC2)c1cccc(F)c1 [compound 248] |
| – | – | – | – | 69% | 25% | 13% | 21% | C/C(=C\n1c2c(c3cc(C)ccc31)CN(C)CC2)c1cnn(C)c1 [compound 109] |
| 70% | 60% | 20% | 33% | – | – | – | – | C/C(=C\n1c2c(c3cc(Cl)ccc31)CN(C)CC2)c1cccc(S(C)(=O)=O)c1 [compound 296] |
| 49% | 58% | 59% | 22% | – | – | – | – | Cc1ccc(CCn2c3c(c4cc(Cl)c(Cl)cc42)CN(C)CC3)cn1 [compound 322] |
| – | – | – | – | 102% | 87% | 87% | 43% | C/C(=C\n1c2c(c3cc(C)ccc31)CCN(C)CC2)c1ccccc1F [compound 232] |
| 89% | 90% | 63% | 46% | – | – | – | – | C/C(=C\n1c2c(c3cc(C)ccc31)CN(C)CC2)c1ccc2c(ccn2C)c1 [compound 283] |
| 98% | 93% | 62% | 44% | – | – | – | – | C/C(=C\n1c2c(c3cc(C)ccc31)CN(C)CC2)c1ccc(C)s1 [compound 278] |
| – | – | – | – | 79% | 6% | 65% | 45% | C/C(=C\n1c2c(c3cc(C)ccc31)CCN(C)CC2)c1ccncn1 [compound 106] |
| 96% | 65% | 69% | 35% | – | – | – | – | C/C(=C\n1c2c(c3cc(C)ccc31)CCN(C)CC2)c1cccnc1 [compound 245] |
| 79% | 69% | 15% | 7% | – | – | – | – | CSc1cccc(/C(C)=C/n2c3c(c4cc(Cl)ccc42)CN(C)CC3)c1 [compound 295] |
| 45% | 90% | 93% | 81% | – | – | – | – | Cc1ccc2c(c1)c1c(n2/C=C/c2cccc3cnccc23)CCN(C)C1 [compound 316, 5-(2-isoquinolin-5-yl-vinyl)-2,8-dimethyl-2,3,4,5-tetrahydro-1H-pyrido[4,3-b]indole] |
| 99% | 94% | 93% | 74% | – | – | – | – | C/C(=C/n1c2c(c3cc(C)ccc31)CN(C)CC2)c1ccc(F)cc1F [compound 258] |
| 54% | 61% | 1% | 6% | – | – | – | – | Cc1ccc2c(c1)c1c(n2CC(O)(c2ccccc2)c2ccccc2)CCN(C)C1 [compound 263] |
| 82% | 81% | 79% | 46% | – | – | – | – | Cc1ccc2c(c1)c1c(n2C#Cc2ccncc2)CCN(C)C1 [compound 264] |
| – | – | – | – | 98% | 66% | 21% | -2% | C/C(=C\n1c2c(c3cc(C)ccc31)CCN(C)CC2)c1ccc(Cl)cc1Cl [compound 227] |
| – | – | – | – | 94% | 21% | 19% | 24% | C/C(=C\n1c2c(c3cc(C)ccc31)CN(C)CC2)c1cn[nH]c1 [compound 115] |
| 93% | 51% | 33% | 35% | – | – | – | – | Cc1ccc2c(c1)c1c(n2CCc2nc(-c3ccc(Cl)cc3)cs2)CCN(C)C1 [compound 326] |
| 94% | 51% | 75% | 61% | – | – | – | – | C/C(=C/n1c2c(c3cc(C)ccc31)CN(C)CC2)c1cnn(C)c1 [compound 275] |
| 98% | 98% | 95% | 82% | – | – | – | – | C/C(=C/n1c2c(c3cc(C)ccc31)CCN(C)CC2)c1cccc(F)c1 [compound 249] |

| SMILES | inhibition at 0.1 µM [1, 5] | inhibition at 0.1 µM [2, 6] | inhibition at 0.1 µM [3, 7] | inhibition at 0.1 µM [4, 8] | inhibition at 0.1 µM [1, 9] | inhibition at 0.1 µM [2, 10] | inhibition at 0.1 µM [3, 11] | inhibition at 0.1 µM [4, 12] |
| --- | --- | --- | --- | --- | --- | --- | --- | --- |
| C/C(=C\n1c2c(c3cc(Cl)ccc31)C1CCC(C2)N1C)c1cccnc1 (stereo not shown) [compound 97] | – | – | – | – | 88% | -12% | 3% | -7% |
